The text below walks through data of patent US12479928B2, “Anti-cancer peptide” (Minerva Biotechnologies Corporation, priority 2014, dated 2025).

Entries after “also recorded” stand apart in the source; their conditions may differ.

Test [1] has as its system T47D breast cancer cells. The test can be described thus: Inhibition of NME7-AB or 2i induced transition of cancer cells to metastatic cancer cells (floaters, RT-PCR). Conditions: for expression of metastasis marker CXCR4 (RT-PCR) / floater cells (change from adherent cells to floaters): cells grown in NME7-AB or 2i; for floater cells (change from adherent cells to floaters): visual observation; for inhibition of transition to a more metastatic state (RT-PCR CXCR4, CHD1, SOX2): peptides alone, transition induced by 2i inhibitors. Type of test: cell-based, human. How it is done: In one example, NME7-AB specific antibodies, generated by immunization with NME7-derived peptides A1, A2, B1, B2 and B3, as well as the immunizing peptides themselves, were added into the media along with either NME7-AB or 2i to determine if they inhibited the transformation of regular cancer cells to metastatic cancer stem cells. Antibodies and peptides were separately added along with the agent that causes metastatic transformation; in this case NME7-AB or the 2i inhibitors PD0325901 and CHIR99021. NME7-AB and 2i were separately used to induce the cancer cells to be transformed to a more aggressive metastatic state. 2i was used so that it could not be argued that the antibodies that were added to the media simply sopped up all of the NME7-AB so that the causative agent effectively was not there (Example 14).
Visual observation was independently recorded by two scientists as the experiment progressed (FIG. 30). […] The amount of mRNA, which indicates cell viability and growth, was measured. […] RT-PCR was used to measure expression levels of metastatic markers, including CXCR4.
In another experiment, the free peptides A1, A2, B1, B2 and B3 were added to cancer cells in culture that were undergoing transition to a more metastatic state by culturing in either NME7-AB or 2i.
In the first of these experiments, the antibodies generated by immunization with A1, A2, B1, B2 and B3 were tested for their ability to inhibit the metastatic transition induced by culture of T47D breast cancer cells in NME7-AB or in 2i inhibitors.
RT-PCR was used to measure expression levels of metastatic markers, including CXCR4. […] (See FIG. 31). […] Peptide B3 was especially effective as was antibody #61 that it generated. […] The amount of mRNA, which indicates cell viability and growth, was measured.

Test [2] addresses T1, binding of human NME1 to synthetic MUC1* peptide (Homo sapiens, UniProt P15941).
T1 sequence (P15941 1110-1154 limits assumed): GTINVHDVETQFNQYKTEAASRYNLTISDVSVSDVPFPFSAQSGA
The test can be described thus: ELISA: inhibition of NME1 binding to immobilized MUC1* peptide. Conditions: free peptides. An excerpt:
(§1) NME7 peptides were selected as immunizing agents for antibody production. NME7 peptides A1, A2, B1, B2 and B3 (FIG. 19) were chosen using a process of sequence alignment among human NME1, human NME7 and several bacterial NMEs that were homologous to human NME1 or human NME7. Five regions that had high sequence homology among all were identified. However, to prevent selecting peptides that would give rise to antibodies that would inhibit human NME1 as well as human NME7, we chose NME7 sequences that were adjacent to the homologous regions wherein those peptides had sequences that were different from human NME1. We did ELISA assays to see if the peptides on their own could bind to a synthetic MUC1* peptide on the surface and inhibit the binding of human NME7 or human NME1 to the immobilized peptide (FIG. 27).
Background: In an ELISA, binding on a coated surface is turned into a signal by an enzyme label.

In test [3] the test system is T47D breast cancer cells. In words: Cancer cell growth inhibition by anti-NME7 specific antibodies and immunizing peptides (Example 13). Type of test: cell-based, human. Conditions: added separately; RPMI with serum. How it is done: Rabbits were immunized with NME7 peptides A1, A2, B1, B2, and B3 and antibodies were generated, collected and purified over a column to which the immunizing peptide had been conjugated. T47D breast cancer cells were plated and cultured according to ATCC protocols in RPMI media supplemented with serum. Immunizing peptides A1, A2, B1, B2, and B3, and the PSMGFR extracellular domain peptide of MUC1*, “FLR” here, were also added separately to growing T47D breast cancer cells. Taxol and the E6 anti-MUC1* Fab were added as controls. […] Note the comparison to inhibition using Taxol, which is a chemotherapy agent that kills healthy and cancer cells alike. Also, for comparison, a polyclonal antibody generated using a large stretch of NME7 from amino acid 100 to 376 is shown.
In a similar experiment, combinations of the antibodies generated from immunization with peptides A1, A2, B1, B2, and B3 as well as the peptides themselves were added to growing cancer cells at the concentrations indicated. […] In these two experiments, the cells were MUC1* positive breast cancer cells.

Test [4] deals with T2, binding of human NME7 to synthetic MUC1* peptide (Homo sapiens, UniProt P15941).
T2 construct: made in house; host or cells: E. coli
T2 sequence (P15941 1110-1154 limits assumed): T1 sequence (P15941 1110-1154 limits assumed)
In words: ELISA: inhibition of NME7 binding to immobilized MUC1* peptide. Conditions: free peptides.
Description: Those antibodies that inhibit cancer growth or transition to a more metastatic state are selected for use as anti-cancer therapeutics and may be administered to a patient for the treatment or prevention of cancers. Selected antibodies may be further optimized for example by engineering or making human chimera antibodies or fully human antibodies. […] We then generated antibodies using these peptides and then tested both the resultant antibodies as well as the immunizing peptides for their ability to: a) inhibit cancerous growth; and b) inhibit the induced transition from cancer cells to metastatic cancer cells. NME7 peptides were selected as immunizing agents for antibody production and as inhibitory agents themselves (FIG. 19 and Example 11). Peptides A1 (SEQ ID NO:141), A2 (SEQ ID NO:142), B1 (SEQ ID NO:143), B2 (SEQ ID NO:144) and B3 (SEQ ID NO:145), wherein A refers to the domain from which the peptide is derived, i.e. the NDPK A domain and the B denotes that the peptide is derived from the NDPK B domain (FIG. 15). Each peptide was used as an immunogen and injected into 2 rabbits each for production of polyclonal antibodies. The antibodies that were harvested from the blood of the immunized rabbits were purified over a column derivatized with the immunizing peptide. The purified antibodies were then tested for their ability to bind to human NME7. All of the resultant antibodies bound to human NME7 but not human NME1 as desired (FIG. 26A-B, Example 12). […] The antibodies were also tested for their ability to inhibit the binding of NME7 to a MUC1* extracellular domain peptide.
as §1

For test [5], the system named is Human stem cells (iPS cat #SC101a-1). The test can be described thus: Human stem cell growth and pluripotency in NME7-AB or NM23-H1 dimers. The conditions noted are these: 8 nM in Minimal Stem Cell Media. Type of test: cell-based. The protocol: For testing recombinant NME7-AB for ability to maintain pluripotency and inhibit differentiation, a soluble variant of NME7, NME7-AB, was generated and purified. Human stem cells (iPS cat #SC101a-1, System Biosciences) were grown per the manufacturer's directions in 4 ng/ml bFGF over a layer of mouse fibroblast feeder cells for four passages. These source stem cells were then plated into 6-well cell culture plates (Vita™, Thermo Fisher) that had been coated with 12.5 ug/well of a monoclonal anti-MUC1* antibody, MN-C3. Cells were plated at a density of 300,000 cells per well. The base media was Minimal Stem Cell Media consisting of: 400 ml DME/F12/GlutaMAX I (Invitrogen #10565-018), 100 ml Knockout Serum Replacement (KO-SR, Invitrogen #10828-028), 5 ml 100×MEM Non-essential Amino Acid Solution (Invitrogen #11140-050) and 0.9 ml (0.1 mM) β-mercaptoethanol (55 mM stock, Invitrogen #21985-023). The base media can be any media. In a preferred embodiment, the base media is free of other growth factors and cytokines. To the base media was added either 8 nM of NME7-AB or 8 nM NM23-H1 refolded and purified as stable dimers. Media was changed every 48 hours and due to accelerated growth, had to be harvested and passaged at Day 3 post-plating.
Cell counts at the first harvest verified that culture in NME7 produced 1.4-times more cells than culture in NM23-H1 dimers.

Consider “AIFGKTKIQNAVHCTDLPEDGLLEVQYFF (peptide B3)”, for which, in test [1], the “expression of metastasis marker CXCR4 (RT-PCR)” value (“expression” for short) was “inhibited the increase in expression”; the “floater cells (change from adherent cells to floaters)” value is recorded as “inhibited the morphological change”; the “inhibition of transition to a more metastatic state (RT-PCR CXCR4, CHD1, SOX2)” value (“inhibition of transition” for short) is “potently inhibit; also recorded: most inhibitory”. Further, the “inhibition of binding of NME1 to immobilized MUC1* peptide” value (shortened to “inhibition of binding of NME1”) in test [2] is listed as “inhibited the binding”. In test [3], the “inhibition of cancer cell growth” value is recorded as “potently inhibited the growth”. Besides, the “inhibition of binding of NME7 to immobilized MUC1* peptide” value (“inhibition of binding of NME7” for short) in test [4] is recorded as “inhibited the binding”.
For the substance “NM23-H1 (NME1) dimers: NM23-H1 refolded and purified as stable dimers”, the “pluripotent stem cell growth / differentiation” value in test [5] is recorded as “no differentiation even when 100% confluent”.
On to DAGFEISAMQMFNMDRVNVE (peptide B1), for which, in test [1], the “expression” value was “inhibited the increase in expression”; the “floater cells (change from adherent cells to floaters)” value is given as “inhibited the morphological change”; the “inhibition of transition” value is recorded as “potently inhibit”. Besides, the “inhibition of binding of NME1” value in test [2] is “inhibited the binding”. Besides, the “inhibition of cancer cell growth” value in test [3] was “potently inhibited the growth”. For the same substance, in test [4], the “inhibition of binding of NME7” value is “inhibited the binding”.
MLSRKEALDFHVDHQS (peptide A1): in test [1], the “expression” value is listed as “inhibited the increase in expression”; the “floater cells (change from adherent cells to floaters)” value is on record as “inhibited the morphological change”; the “inhibition of transition” value is on record as “potently inhibit”. Also, the “inhibition of binding of NME1” value in test [2] was “inhibited the binding”. The “inhibition of cancer cell growth” value in test [3] is “potently inhibited the growth”. For the same substance, the “inhibition of binding of NME7” value in test [4] was “inhibited the binding”.
Turning to SGVARTDASES (peptide A2), in test [1], the “expression” value was “inhibited the increase in expression”; the “floater cells (change from adherent cells to floaters)” value is “inhibited the morphological change”; the “inhibition of transition” value is “potently inhibit”. Further, in test [2], the “inhibition of binding of NME1” value was “inhibited the binding”. For the same substance, the “inhibition of cancer cell growth” value in test [3] is recorded as “potently inhibited the growth”. Besides, the “inhibition of binding of NME7” value in test [4] is recorded as “inhibited the binding”.
For EVYKGVVTEYHDMVTE (peptide B2), in test [1], the “expression” value is recorded as “inhibited the increase in expression”; the “floater cells (change from adherent cells to floaters)” value is “inhibited the morphological change”; the “inhibition of transition” value is “potently inhibit”. Further, the “inhibition of binding of NME1” value in test [2] is “inhibited the binding”. Further, the “inhibition of cancer cell growth” value in test [3] is listed as “potently inhibited the growth”. In addition, the “inhibition of binding of NME7” value in test [4] is “inhibited the binding”.
